Source: patent publication US20230119355A1, “PHARMACEUTICAL COMPOSITIONS OF A KINASE INHIBITOR” (AURIGENE DISCOVERY TECHNOLOGIES LIMITED, priority 2020, published 2023)
Counter-ions that a name gives are not always drawn. Like-named read-outs stand apart in the source and are kept apart here.

Key:
[1] = Water solubility / ionisation at physiological pH; format: physicochemical
[2] = Bioavailability after oral administration; format: in vivo

For `Cn1cc(-c2ccc3c(c2)ncn3-c2cc(NS(=O)(=O)C3CC3)cc(-c3ccc(F)cc3F)c2)cn1` [Compound (I) HCl salt, hydrochloride salt of N-(2′,4′-difluoro-5-(5-(1-methyl-1H-pyrazol-4-yl)-1H-benzo[d]imidazol-1-yl)-[1,1′-biphenyl]-3-yl)cyclopropanesulfonamide], the “water solubility of the salt form” value ([1]; hydrochloride salt forms compared with compound (I)) was “enhanced” and the “bioavailability after oral administration” value ([2]; listed as Hydrochloride salt forms of compound (I)) was “improved”.

In the case of `Cn1cc(-c2ccc3c(c2)ncn3-c2cc(NS(=O)(=O)C3CC3)cc(-c3ccc(F)cc3F)c2)cn1` [Compound (I), N-(2′,4′-difluoro-5-(5-(1-methyl-1H-pyrazol-4-yl)-1H-benzo[d]imidazol-1-yl)-[1,1′-biphenyl]-3-yl)cyclopropanesulfonamide], the solubility in water ([1]; physiological pH range) is reported as “practically insoluble”, the ionisation state ([1]; within the physiological pH range) is reported as “neutral” and the “bioavailability after oral administration” value [2] is reported as “very low”.
